The source of these data is paper PMC6832265 (Molecules, 2019).

“Also recorded” adds a separate entry of the source. Where two headings read alike, the source gives them in different places.

Series [1] can be described thus: MTT test, intrinsic cytotoxicity. Format: cell-based. The conditions noted are these: human, HeLa cells (cervical carcinoma), compound alone. An excerpt: First, we studied the intrinsic cytotoxicity of the compounds against HeLa cells (cervical carcinoma). For experiments on cells, we selected compounds which combined high inhibitory activity with good chemical accessibility. The MTT test data are shown in Figure 4 for compounds from both the heteroarylidene-hydrazinotiazole and arylidene-hydrazinotiazole subclasses. […] Heteroarylidene-hydrazinothiazole derivatives (+)- and (−)-16f, containing a bromothiophene residue, also have low toxicity (CC50 about 80 µM), while the 16d pair, containing a nitro group that is a known toxicophore, suppressed cell growth at a concentration of 20 µM.
Analysis of the intrinsic toxicity of the compounds was examined against human cell line HeLa (cervical cancer) using a standard MTT test by colorimetric measurement of the amount of formazan converted from 3-(4,5-dimethylthiazol-2-yl)-2,5-diphenyl-2H-tetrazolium bromide in cells exposed to the compounds. […] After formation of a 30–50% monolayer, tested compounds were added to the medium (the volume of added reagents was 1/100 of the total volume of the culture medium, the amount of DMSO was 1% of the final volume), and the cell culture was monitored for three days. […]

The target of series [2] is T1, Tdp1 (Homo sapiens, UniProt Q9NUW8).
T1 construct: made in house; host or cells: Escherichia coli
The experiment in a line: Real-time detection of Tdp1 activity (5'-FAM/3'-BHQ1 oligonucleotide biosensor). It counts as biochemical. The conditions noted are these: 1.5 nM Tdp1, 50 nM oligonucleotide substrate, 26 °C. In outline:
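Recombinant human Tdp1 (E. coli-expressed, 1.5 nM) with 50 nM 16-mer ssDNA 5'-FAM/3'-BHQ1 biosensor in 50 mM Tris-HCl, 50 mM NaCl, 7 mM β-mercaptoethanol, 26 °C; fluorescence (Ex485/Em520) read each minute. Inhibition from linear-phase slope (0–7 min) vs 1.5% DMSO control; IC50 from six-point curves, ≥2 independent experiments.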

The target of series [3] is T2, recombinant Tdp1 (residues 149–608) (Homo sapiens, UniProt Q9NUW8).
T2 construct: recombinant Tdp1 (residues 149–608) was obtained from GenScript; host or cells: E. coli BL21(DE3)
Nature of the series: Intrinsic tryptophan fluorescence quenching binding assay. The conditions noted are these: 10 µM Tdp1, 20 mM Tris, 250 mM NaCl, pH 8; triplicate. As to the method: The binding of the synthesized compounds to recombinant Tdp1 was also tested (Table 1 and Table 2) by using an intrinsic tryptophan fluorescence quenching assay. […] As our compounds are aromatic in nature, there is a possibility that they may bind to both the active site as well as non-specifically to the DNA/peptide binding pockets. Nonetheless, our results confirmed that the compounds were indeed binders of Tdp1, thus complementing our inhibition data.
pET-28a(+) plasmid encoding recombinant Tdp1 (residues 149–608) was obtained from GenScript. E. coli BL21(DE3) was used for recombinant protein production. Protein production was induced with 1 mM IPTG at 28 °C with overnight incubation. Tdp1 was purified using affinity and size exclusion chromatography. Fluorescence was measured using a PerkinElmer EnSpire Multimode Reader. Tdp1 concentration was 10 μM with varying compound concentrations. The buffer was 20 mM Tris and 250 mM NaCl (pH 8). The excitation wavelength was 280 nm and intrinsic fluorescence was measured at 350 nm. Control experiments with Tdp1 or the compound on its own were also conducted. Background fluorescence arising from the compounds was subtracted from the final spectrum. The total volume per well was 30 μL. The dissociation constant (KD) was calculated using Equation (1), which takes non-specific binding into account. y = Bmaxx/(KD + x) + Nsx(1) where y denotes the changes in fluorescence intensity; x denotes the concentration of the compounds; Bmax denotes the maximum changes in fluorescence intensity; and Ns is a scaling factor for non-specific binding. Experiments were conducted in triplicate.

The target in series [4] is T1, Tdp1. The conditions noted are these: cited from earlier work.
The next series deals with HeLa cells. Nature of the series: MTT test, combination of Tdp1 inhibitors with topotecan. Format: cell-based, human.
A further series relates to mice. The conditions noted are these: ref Registry of Toxic Effects of Chemical Substances, cited from earlier work.
The test system of the next series is Tdp2. More on the design: method as in PMID 28418653. The conditions noted are these: cited from earlier work.
The next series has as its system Top1. More on the design: method as in PMID 28418653. The conditions noted are these: cited from earlier work.
For another series, the system named is Lewis lung carcinoma. More on the design: method as in PMID 30903487. The conditions noted are these: Lewis lung carcinoma models; cited from earlier work.

T1 sequence (Q9NUW8 whole entry): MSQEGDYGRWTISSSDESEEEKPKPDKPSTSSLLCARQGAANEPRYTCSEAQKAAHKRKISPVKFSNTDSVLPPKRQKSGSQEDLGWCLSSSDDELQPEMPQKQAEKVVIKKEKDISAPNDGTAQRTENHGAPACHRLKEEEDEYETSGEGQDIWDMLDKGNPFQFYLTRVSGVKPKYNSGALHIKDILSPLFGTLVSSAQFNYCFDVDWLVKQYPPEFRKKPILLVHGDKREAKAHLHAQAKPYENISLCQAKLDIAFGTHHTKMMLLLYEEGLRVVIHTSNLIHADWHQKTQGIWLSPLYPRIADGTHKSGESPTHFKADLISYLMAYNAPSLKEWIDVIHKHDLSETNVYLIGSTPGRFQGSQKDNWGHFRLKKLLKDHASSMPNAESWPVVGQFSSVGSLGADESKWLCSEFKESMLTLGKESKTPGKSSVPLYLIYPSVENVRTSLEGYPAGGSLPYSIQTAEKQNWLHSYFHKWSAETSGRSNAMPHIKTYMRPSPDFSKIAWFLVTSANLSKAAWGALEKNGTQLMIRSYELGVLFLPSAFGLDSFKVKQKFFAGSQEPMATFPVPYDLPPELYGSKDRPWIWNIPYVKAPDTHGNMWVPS
T2 sequence (Q9NUW8 149-608): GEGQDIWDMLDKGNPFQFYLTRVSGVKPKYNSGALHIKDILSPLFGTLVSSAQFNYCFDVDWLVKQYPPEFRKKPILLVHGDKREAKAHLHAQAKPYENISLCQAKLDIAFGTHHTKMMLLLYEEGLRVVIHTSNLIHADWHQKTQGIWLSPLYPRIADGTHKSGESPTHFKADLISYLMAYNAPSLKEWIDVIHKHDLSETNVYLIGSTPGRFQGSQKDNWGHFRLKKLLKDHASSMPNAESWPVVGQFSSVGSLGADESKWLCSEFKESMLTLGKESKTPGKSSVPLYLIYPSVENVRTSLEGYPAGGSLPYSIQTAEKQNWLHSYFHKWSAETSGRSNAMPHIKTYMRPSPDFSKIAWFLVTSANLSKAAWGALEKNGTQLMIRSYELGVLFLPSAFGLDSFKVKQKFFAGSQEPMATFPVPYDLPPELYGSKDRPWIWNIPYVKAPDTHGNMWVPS
Protocol for HeLa cells: In order to derive the optimal concentration for the inhibitors to provide the maximum sensitizing effect, but remaining non-toxic, the concentrations with topotecan at 2 µM, were varied.
Since there is no information on the rate and efficiency of the penetration of compounds into the cells, we studied the effect of the order of administration of (+)-17b and topotecan on their synergistic effect.
Analysis of the intrinsic toxicity of the compounds was examined against human cell line HeLa (cervical cancer) using a standard MTT test [51] by colorimetric measurement of the amount of formazan converted from 3-(4,5-dimethylthiazol-2-yl)-2,5-diphenyl-2H-tetrazolium bromide in cells exposed to the compounds. The cells were grown in Iscove’s Modified Dulbecco’s Medium (IMDM), with 40 μg/mL gentamicin, 50 IU/mL penicillin, 50 μg/mL streptomycin (MP Biomedicals), and in the presence of 10% fetal bovine serum (Biolot) in a 5% CO2 atmosphere. After formation of a 30–50% monolayer, tested compounds were added to the medium (the volume of added reagents was 1/100 of the total volume of the culture medium, the amount of DMSO was 1% of the final volume), and the cell culture was monitored for three days. Control cells were grown in the presence of 1% DMSO. The measurements were carried out in three parallel experiments.

In the case of `CC(=O)C1=C(O)C=C2Oc3c(-c4csc(N/N=C/c5ccc(Br)s5)n4)c(O)c(C)c(O)c3[C@]2(C)C1=O` [(−)-16f, (2S)-4-Acetyl-5,11,13-trihydroxy-2,12-dimethyl-10-{2-[(E)-2-[(5-bromothiophen-2-yl)methylidene]hydrazin-1-yl]-1,3-thiazol-4-yl}-8-oxatricyclo[7.4.0.0^2,7]trideca-1(9),4,6,10,12-pentaen-3-one], the CC50 at 3 days in series [1] was approximately 80 µM. Moreover, 0.043 ± 0.001 µM corresponded to half-maximal inhibition at Tdp1 [2] (IC50). In series [3], the Kd is 148 ± 9 µM.

Consider `CC1(C)[C@H]2CC=C(COc3ccc4c5c(c(=O)oc4c3)CCC5)[C@@H]1C2` [compound 7], for which the IC50 at Tdp1 [4] (read-out: IC50) is 0.67 µM.

With `COc1ccc(/C=N/Nc2nc(-c3c(O)c(C)c(O)c4c3OC3=CC(O)=C(C(C)=O)C(=O)[C@@]34C)cs2)cc1COc1cccc(F)c1` [(+)-17b, (2R)-4-Acetyl-10-{2-[(E)-2-({3-[(3-fluorophenoxy)methyl]-4-methoxyphenyl}methylidene)hydrazin-1-yl]-1,3-thiazol-4-yl}-5,11,13-trihydroxy-2,12-dimethyl-8-oxatricyclo[7.4.0.0^2,7]trideca-1(9),4,6,10,12-pentaen-3-one], the “effect of the order of administration on the synergistic effect with topotecan” value in the series with HeLa cells (30 minutes between additions) is recorded as “the simultaneous administration of drugs reduced the synergistic effect; also recorded: led to worse results when compared with simultaneous administration”. The same molecule showed an IC50 on Tdp1 [2] of 0.026 ± 0.004 µM. In addition, the Kd in [3] worked out at 131 ± 15 µM.

Turning to “2,6-diacetyl-7,9-dihydroxy-8,9b-dimethyl-1,3(2H,9bH)-dibenzo-furandione [Usnic acid]”, the LD50 in the series with mice (mice) was 838 mg/kg. In addition, in the series on mice, the toxicity class entry is listed as “class III toxicity (moderately toxic)”.

`COc1cnc2c(c1)C(=O)c1c-2n(CCCNC2=NCCS2)c(=O)c2cc([N+](=O)[O-])ccc12` [compound 4]: the values for the IC50 with Tdp2, in the series on Top1 and on Tdp1 [4] (read-out: IC50 (Tdp1)) were 12 to 37 µM, less than 1 µM and 1 to 12 µM, respectively.

The molecule `CC(=O)C1=C(O)C=C2Oc3c(-c4csc(N/N=C/c5ccc(Br)s5)n4)c(O)c(C)c(O)c3[C@@]2(C)C1=O` [(+)-16f, (2R)-4-Acetyl-5,11,13-trihydroxy-2,12-dimethyl-10-{2-[(E)-2-[(5-bromothiophen-2-yl)methylidene]hydrazin-1-yl]-1,3-thiazol-4-yl}-8-oxatricyclo[7.4.0.0^2,7]trideca-1(9),4,6,10,12-pentaen-3-one] yielded a CC50 at 3 days in series [1] of approximately 80 µM. At Tdp1 [2], this molecule yielded an IC50 of 0.088 ± 0.003 µM. The Kd in [3] turned out to be 95 ± 11 µM.

For `CC[C@@]1(O)C(=O)OCc2c1cc1n(c2=O)Cc2cc3c(CN(C)C)c(O)ccc3nc2-1` [topotecan, reference compound], in the series with HeLa cells (Homo sapiens, read-out: CC50 of topotecan alone), the CC50 worked out at 6 µM.

In turn, “(2S)-4-Acetyl-5,11,13-trihydroxy-2,12-dimethyl-10-{2-[(E)-2-[(1H-3-methyl-indole-3-yl) methylidene]hydrazin-1-yl]-1,3-thiazol-4-yl}-8-oxatricyclo[7.4.0.0^2,7]trideca-1(9),4,6,10,12-pentaen-3-one [(−)-16q]” showed an IC50 at Tdp1 [2] of 0.081 ± 0.02 µM. The Kd in series [3] came to 58 ± 4 µM.

The molecule `CC(=O)C1=C(O)C=C2Oc3c(-c4csc(N/N=C/c5ccccn5)n4)c(O)c(C)c(O)c3[C@@]2(C)C1=O` [(+)-16b, 2-[(1E)-(2-{4-[(1R)-12-Acetyl-3,5,11-trihydroxy-1,4-dimethyl-13-oxo-8-oxatricyclo[7.4.0.0^2,7]trideca-2(7),3,5,9,11-pentaen-6-yl]-1,3-thiazol-2-yl}hydrazin-1-ylidene)methyl]pyridin-1-ium bromide] showed an IC50 against Tdp1 [2] of 0.492 ± 0.088 µM. Also, the Kd in series [3] stood at 77 ± 24 µM.

Take “(2S)-4-Acetyl-5,11,13-trihydroxy-2,12-dimethyl-10-{2-[(E)-2-[(thiophen-3-yl)methylidene] hydrazin-1-yl]-1,3-thiazol-4-yl}-8-oxatricyclo[7.4.0.0^2,7]trideca-1(9),4,6,10,12-pentaen-3-one amine [(−)-16j]”: on Tdp1 [2], the IC50 was 0.04 ± 0.003 µM. Further, the Kd in series [3] came to 771 ± 46 µM.

Molecule `CC(=O)C1=C(O)C=C2Oc3c(-c4csc(N/N=C/c5ccco5)n4)c(O)c(C)c(O)c3[C@]2(C)C1=O` [(−)-16k, (2S)-4-Acetyl-5,11,13-trihydroxy-2,12-dimethyl-10-{2-[(E)-2-[(furan-2-yl)methylidene] hydrazin-1-yl]-1,3-thiazol-4-yl}-8-oxatricyclo[7.4.0.0^2,7]trideca-1(9),4,6,10,12-pentaen-3-one] came in with an IC50 at Tdp1 [2] of 0.046 ± 0.024 µM. Further, the Kd in series [3] was 250 ± 24 µM.

Regarding `CC(=O)c1c(O)c(C)c(O)c2c1OC1=CC(=O)/C(=C(/C)NCCCc3cc(C(C)(C)C)c(O)c(C(C)(C)C)c3)C(=O)[C@@]12C` [9b], the metastasis growth result in the series on Lewis lung carcinoma is reported as “reduces metastasis growth”.

On to `CCCCN(CCCC)CC(=O)Nc1cc(C(F)(F)F)cc2c1SSSSS2` [compound 2], for which the IC50 at Tdp1 [4] (read-out: IC50) was 0.2 µM.
